Experimental data from ChEMBL document CHEMBL2203176, “Structure-based bioisosterism design, synthesis and biological evaluation of novel 1,2,4-triazin-6-ylthioacetamides as potent HIV-1 NNRTIs” (Bioorg Med Chem Lett, 2012).

How the values were obtained:
[1] = tested on: Human immunodeficiency virus 1; experiment: Ratio of nevirapine EC50 to compound EC50 for HIV1 3B; type: functional
[2] = tested on: Human immunodeficiency virus 1; experiment: Ratio of dideoxycytidine EC50 to compound EC50 for HIV1 3B; type: functional
[3] = tested on: Human immunodeficiency virus 1; experiment: Ratio of delavirdine EC50 to compound EC50 for HIV1 3B; type: functional
[4] = Selectivity index, ratio of CC50 for human MT4 cells to EC50 for HIV1 RES056 harboring reverse transcriptase K103N/Y181C mutant; type: toxicity, cell-based; details: read-out: Ratio CC50/EC50
[5] = tested on: Human immunodeficiency virus 1; experiment: Antiviral activity against HIV1 RES056 harboring reverse transcriptase K103N/Y181C mutant infected in human MT4 cells assessed as inhibition of virus-induced cytopathicity by MTT assay; type: functional, organism-based; details: Human immunodeficiency virus 1, RES056, MT4
[6] = tested on: Human immunodeficiency virus 2; experiment: Antiviral activity against HIV2 ROD infected in human MT4 cells assessed as inhibition of virus-induced cytopathicity by MTT assay; type: functional, organism-based; details: Human immunodeficiency virus 2, ISOLATE ROD
[7] = Selectivity index, ratio of CC50 for human MT4 cells to EC50 for HIV1 3B; type: toxicity, cell-based; details: read-out: Ratio CC50/EC50
[8] = Selectivity index, ratio of CC50 for human MT4 cells to EC50 for HIV2 ROD; type: toxicity, cell-based; details: read-out: Ratio CC50/EC50
[9] = tested on: Human immunodeficiency virus 1; experiment: Antiviral activity against HIV1 3B infected in human MT4 cells assessed as inhibition of virus-induced cytopathicity by MTT assay; type: functional, organism-based; details: Human immunodeficiency virus 1, 3B
[10] = Cytotoxicity against human MT4 cells by MTT assay; type: cell-based
[11] = target: Human immunodeficiency virus type 1 reverse transcriptase (Human immunodeficiency virus 1, UniProt Q72547); experiment: Inhibition of HIV1 reverse transcriptase assessed as biotin-dUTP incorporation into enzyme using […] as template primer by colorimetric analysis

SMILES	Ratio EC50 [1]	Ratio EC50 [2]	Ratio EC50 [3]	selectivity ratio [4]	EC50 [5]	EC50 [6]	selectivity ratio [7]	selectivity ratio [8]	EC50 [9]	CC50 [10]	IC50 [11]
NS(=O)(=O)c1ccc(NC(=O)CSc2nncnc2-c2cccc3ccccc23)c(Br)c1	11	78	2	7	3.3 µM	> 23 µM	1290	< 1	0.018 µM	23 µM	–
Cc1ccc(NC(=O)CSc2nncnc2-c2ccccc2Cl)c([N+](=O)[O-])c1	–	–	–	≤ 1	≥ 22 µM	> 158 µM	3330	< 1	0.048 µM	158 µM	18 µM
O=C(CSc1nncnc1-c1ccccc1Cl)Nc1ccccc1[N+](=O)[O-]	–	–	–	≤ 6	≥ 11 µM	> 63 µM	2160	< 1	0.023 µM	63 µM	6.5 µM
